Data on one molecule can be found in ChEMBL document CHEMBL1121440, “Soft drugs. 2. Soft alkylating compounds as potential antitumor agents” (1980).

In general, ILS refers to how much longer treated animals lived than controls. High values mean a large benefit in survival, low ones a small benefit in survival.

Type in all cases: functional
Holding throughout (settings): P388, ip, route intraperitoneal

Assay [1] relates to Mus musculus. The assay can be described thus: Evaluated for % increase in median survival rate against P388 Lymphocytic Leukemia at a dose of 200 mg/kg administered intraperitoneally.
The subject of assay [2] is Mus musculus. The assay can be described thus: Evaluated for % increase in median survival rate against P388 Lymphocytic Leukemia at a dose of 50 mg/kg administered intraperitoneally.
For assay [3], the system named is Mus musculus. The assay can be described thus: Evaluated for % increase in median survival rate against P388 Lymphocytic Leukemia at a dose of 100 mg/kg administered intraperitoneally.
Assay [4] deals with Mus musculus. Kind of assay: Evaluated for % increase in median survival rate against P388 Lymphocytic Leukemia at a dose of 400 mg/kg administered intraperitoneally.

Turning to `CCCCCCC(=O)OCCl` [HEPTANOIC ACID CHLOROMETHYL ESTER], the ILS at 200 mg/kg in the assay with Mus musculus [1] came to 127%. This molecule yielded an ILS at 50 mg/kg with Mus musculus [2] of 107%. In the assay with Mus musculus [3], this molecule had an ILS at 100 mg/kg of 120%. Also, the ILS at 400 mg/kg in the assay on Mus musculus [4] was 109%.
